In patent US20110195432A1, “METHODS FOR THE SELECTION OF THERAPEUTIC TREATMENTS FOR CANCER” (priority 2008, published 2011):
Entries after “also recorded” stand apart in the source; their conditions may differ.

How the values were obtained:
PSA and TMPRSS2-ERG = details: VCaP cells; 24 hours; increasing doses; vehicle set to 1
Protocol: To determine the functional consequences of sulforaphane-mediated reduction in AR protein levels, real-time PCR was conducted for several AR target genes, including PSA and the TMPRSS2-ERG gene fusion present in VCaP cells (FIGS. 5A-C). Cells were lysed in Trizol (Invitrogen, Carlsbad, Calif.) and then purified with the RNAEasy Kit (Qiagen, Valencia, Calif.). One μg of RNA was reverse-transcribed using the Omniscript RT kit (Qiagen, Valencia, Calif.). Real-time PCR primer sequences and conditions were as follows.
The real-time PCR program consisted of: 50° C. for 2 minutes for 1 cycle; 95° C. for 10 minutes for 1 cycle; 95° C. for 15 seconds and 60° C. for 15 seconds for a total of 40 cycles. Standard curves were generated by measuring expression of target genes and 18S rRNA in serial dilutions of a mock-treated control. All samples were run in triplicate. The vehicle-treated sample was set to 1.

AR [1] = test: Western blot of AR protein levels, LNCaP cells; format: cell-based
acetylated alpha-tubulin = test: Western blot of acetylated alpha-tubulin, LNCaP cells; format: cell-based
Protocol: The vehicle sample was set to 1.
LNCaP cells were transiently transfected with either a siRNA sequence complementary to the luciferase gene ([…]; SEQ ID NO: 8) or to HDAC6 ([…]; SEQ ID NO: 9) using DharmaFECT 3 transfection reagent for a final concentration of 100 nM (Dharmacon, Lafayette, Colo.). At 48, 72, and 96 hours post-transfection, cells were harvested. Levels of protein expression by Western blot were quantified.

AR [2] = test: Real-time PCR of AR gene expression, LNCaP cells; format: cell-based
Text: (§1) All samples were run in triplicate. The vehicle-treated sample was set to 1.

AR [3] = test: Western blot of AR protein levels, LNCaP cells; format: cell-based; remark: listed apart in the source
Protocol: Immunoprecipitation and immunoblotting were performed as described (Qian et al., Clin. Cancer Res. 12:634-42, 2006). The following antibodies used in immunoblotting or immunoprecipitations (indicated dilutions are for immunoblotting): AR (1:1000, #06-680 Upstate, Billerica, Mass.); acetylated lysine (#05-515 Upstate, Billerica, Mass.); acetylated tubulin (1:2000, #T6793 Sigma, St. Louis, Mo.); alpha-tubulin (1:10,000, #T6074 Sigma, St. Louis, Mo.); beta-actin (1:5000, #A5441 Sigma, St. Louis, Mo.); ERG-1/2/3, (1:5000, #sc-354X Santa Cruz, Santa Cruz, Calif.); FLAG epitope (#F7425 Sigma, St. Louis, Mo.); GAPDH (1:5000, #sc-32233 Santa Cruz, Santa Cruz, Calif.); HDAC6 (1:1000, #sc-11420 Santa Cruz); HSP90 (1:1000, #SPA-840 Stressgen, Ann Arbor, Mich.); mouse IgG (#sc-2025 Santa Cruz, Santa Cruz, Calif.). The following secondary antibodies were used: ECL-conjugated anti-mouse IgG, (1:5000, #A6782 Sigma, St. Louis, Mo.); ECL-conjugated anti-rabbit IgG (1:3000, #NA934 Amersham, Piscataway, N.J. or 1:10,000, #sc-2004 Santa Cruz, Santa Cruz, Calif.). X-ray exposures were scanned as uncompressed images and bands were quantified by densitometry with Quantity One software (Bio-Rad, Hercules, Calif.). Intensity values were normalized to those of the endogenous controls. The vehicle sample was set to 1. Enrichment was calculated as: (intensity IP/intensity input)/(intensity IgG/intensity input) or intensity IP/input (FIG. 1B).
LNCaP cells were treated with sulforaphane in a dose-response (5 μM to 20 μM) and time-course (12 and 24 hours) manner to investigate the effect of HDAC6 inhibition on AR protein levels. Western blotting was performed as described in Example 1. […]

AR [4] = test: Real-time PCR of AR gene expression, VCaP cells; format: cell-based
Text: as §1

recombinant HDAC6 = target: T1, recombinant HDAC6 (Homo sapiens, UniProt Q9UBN7); details: cell-free; 7.5 or 15 μM sulforaphane, or 400 nM TSA; versus vehicle-treated HDAC6 control
T1 sequence (Q9UBN7 1-1215): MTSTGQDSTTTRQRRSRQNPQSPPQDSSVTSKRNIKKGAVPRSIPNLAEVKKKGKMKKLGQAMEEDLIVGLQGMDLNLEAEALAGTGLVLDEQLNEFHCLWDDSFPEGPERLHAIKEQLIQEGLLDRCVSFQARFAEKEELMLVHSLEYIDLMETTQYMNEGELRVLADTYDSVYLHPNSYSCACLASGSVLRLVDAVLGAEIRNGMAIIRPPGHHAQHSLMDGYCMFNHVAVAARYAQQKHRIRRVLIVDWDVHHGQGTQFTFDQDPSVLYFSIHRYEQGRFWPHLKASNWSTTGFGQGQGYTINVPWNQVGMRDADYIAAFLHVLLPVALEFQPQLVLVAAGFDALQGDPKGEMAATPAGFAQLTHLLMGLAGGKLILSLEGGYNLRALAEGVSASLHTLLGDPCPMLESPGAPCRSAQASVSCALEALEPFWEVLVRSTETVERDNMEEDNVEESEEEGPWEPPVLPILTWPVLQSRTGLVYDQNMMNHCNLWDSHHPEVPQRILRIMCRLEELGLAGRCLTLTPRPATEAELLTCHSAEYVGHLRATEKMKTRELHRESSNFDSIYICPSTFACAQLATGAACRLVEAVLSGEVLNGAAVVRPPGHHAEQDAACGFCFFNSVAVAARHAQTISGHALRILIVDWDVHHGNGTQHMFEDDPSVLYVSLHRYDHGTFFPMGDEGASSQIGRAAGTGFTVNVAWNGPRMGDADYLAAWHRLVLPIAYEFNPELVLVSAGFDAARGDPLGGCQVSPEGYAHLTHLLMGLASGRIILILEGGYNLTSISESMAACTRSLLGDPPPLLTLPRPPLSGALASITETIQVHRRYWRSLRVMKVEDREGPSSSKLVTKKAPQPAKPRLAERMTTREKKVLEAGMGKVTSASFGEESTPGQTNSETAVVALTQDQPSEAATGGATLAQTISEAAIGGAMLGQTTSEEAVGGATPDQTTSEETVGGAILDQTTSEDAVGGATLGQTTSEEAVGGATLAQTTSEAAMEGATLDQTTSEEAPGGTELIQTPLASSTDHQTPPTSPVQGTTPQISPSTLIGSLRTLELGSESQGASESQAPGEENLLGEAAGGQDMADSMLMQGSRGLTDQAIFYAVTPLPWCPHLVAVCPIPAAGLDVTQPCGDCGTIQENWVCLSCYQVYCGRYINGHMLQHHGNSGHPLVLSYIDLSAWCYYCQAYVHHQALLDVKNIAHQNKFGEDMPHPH

[5] = FLAG-HDAC6 transfected LNCaP cells, sulforaphane-treated, versus empty-vector, sulforaphane-treated cells
[6] = empty-vector transfected LNCaP cells, 16-hour treatment with 15 nM sulforaphane versus vehicle

## C[S+]([O-])CCCCN=C=S (centres unmarked) [sulforaphane, 1-Isothiocyanato-4-methylsulfinylbutane]
PSA and TMPRSS2-ERG
  AR target gene expression (PSA, TMPRSS2-ERG): dose-dependent reduction
AR [1]; 4 hour treatment, vehicle versus sulforaphane
  levels of AR in input whole cell lysate: similar
AR [1]; [5]
  AR protein depletion in HDAC6-over-expressing cells: attenuated
AR [1]; LNCaP cells, 12 hours, highest doses tested (10-20 μM)
  AR protein levels: decreased
AR [1]; after sulforaphane treatment
  onset of AR protein decline: 6 to 12 h
AR [1]; [6]
  AR protein: decreased
Acetylated alpha-tubulin; [5]
  alpha-tubulin acetylation in HDAC6-over-expressing cells: blunted
Acetylated alpha-tubulin; [6]
  acetylated tubulin: increased
Acetylated alpha-tubulin; sulforaphane 20 μM, 4 hours, versus vehicle
  levels of acetylated tubulin in input whole cell lysate: increased levels of acetylated alpha-tubulin
AR [2]; 20 μM
  AR transcript levels at highest dose: declined
AR [2]; increasing doses of sulforaphane, or TSA, vehicle set to 1
  AR transcripts: not consistently suppressed
AR [3]; 24 hours, sulforaphane 20 μM or 300 nM TSA with 10 μM MG132
  AR steady state level with simultaneous MG132 treatment: restored the AR steady state level close to that seen in the vehicle-treated control
AR [3]; 24 hours, sulforaphane 20 μM or 300 nM TSA, versus vehicle-treated cells
  AR protein in the absence of MG132: dramatic reductions
AR [3]; sulforaphane 15 μM and 20 μM, TSA
  AR protein levels at 24 hours: persisted
AR [4]; 15-20 μM
  AR transcript levels at highest doses: declined
AR [4]; 24 hours, increasing doses of sulforaphane, or TSA, vehicle set to 1
  AR transcripts: not consistently suppressed
Recombinant HDAC6
  HDAC6 deacetylase activity on tubulin: decreased HDAC6 deacetylase activity; also recorded: inhibited HDAC6 deacetylase activity
